Reference: US11377441B2, “Covalent inhibitors of KRAS” (Araxes Pharma LLC, priority 2017, dated 2022)

Biological target: T1, KRAS G12C 1-169, his-tagged protein, GDP-loaded (Homo sapiens, UniProt P01116, G12C)
T1 construct: KRAS G12C 1-169, his-tagged protein, GDP-loaded
Experiment: Biochemical assay: covalent modification of KRAS G12C measured by mass spectrometry (RapidFire/TOF or Q-Exactive)
Type: binding
Conditions: Example 14 comparative biochemical data; tested according to the above procedures (Example 1)
Method in brief: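 Intact-mass readout (TOF or Q-Exactive, charge-envelope deconvolution) gives percent covalent adduct from modified and unmodified species. Compound at 10, 30 or 100 μM was incubated at room temperature for 10 min to 24 h with 2 μM or 0.5 μM GDP-bound KRAS G12C 1-169 in Hepes/NaCl/MgCl2 buffer, then acid-quenched.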

binding activity [%]	SMILES
71	C=CC(=O)N1C[C@H](C)N(c2nc(N3CC(N(C)C)C3)nc3c(F)c(-c4c(C)ccc5[nH]ncc45)c(Cl)cc23)C[C@H]1C (atropisomer, axis not shown) [reference compound]

Same assay, conditions: covalent binding to (modification of) KRAS G12C after a ten minute incubation period

SMILES	Binding %
C=CC(=O)N1C[C@H](C)N(c2nc(N3CC(N(C)C)C3)nc3c(F)c(-c4cccc5[nH]ncc45)c(Cl)cc23)C[C@H]1C [Compound 1, 1-((2R,5S)-4-(6-chloro-2-(3-(dimethylamino)azetidin-1-yl)-8-fluoro-7-(1H-indazol-4-yl)quinazolin-4-yl)-2,5-dimethylpiperazin-1-yl)prop-2-en-1-one]	++ (++ indicates binding activity from 50 to 80%)
C=CC(=O)N1C[C@H](C)N(c2nc(N3CC(N(C)C)C3)nc3c(F)c(-c4cccc5[nH]nc(N)c45)c(Cl)cc23)C[C@H]1C [Compound 2, 1-((2R,5S)-4-(7-(3-amino-1H-indazol-4-yl)-6-chloro-2-(3-(dimethylamino)azetidin-1-yl)-8-fluoroquinazolin-4-yl)-2,5-dimethylpiperazin-1-yl)prop-2-en-1-one]	++ (++ indicates binding activity from 50 to 80%)
C=CC(=O)N1C[C@H](C)N(c2nc(N3CC(N(C)C)C3)nc3c(F)c(-c4c(C)ccc5[nH]nc(N)c45)c(Cl)cc23)C[C@H]1C [Compound 3, 1-((2R,5S)-4-(7-(3-amino-5-methyl-1H-indazol-4-yl)-6-chloro-2-(3-(dimethylamino)azetidin-1-yl)-8-fluoroquinazolin-4-yl)-2,5-dimethylpiperazin-1-yl)prop-2-en-1-one]	+++ (+++ indicates binding activity greater than 80%)
C=CC(=O)N1C[C@H](C)N(c2nc(N3CC(N(C)C)C3)nc3c(F)c(-c4c(C)ccc5[nH]nc(NC)c45)c(Cl)cc23)C[C@H]1C [Compound 13, 1-((2R,5S)-4-(6-chloro-2-(3-(dimethylamino)azetidin-1-yl)-8-fluoro-7-(5-methyl-3-(methylamino)-1H-indazol-4-yl)quinazolin-4-yl)-2,5-dimethylpiperazin-1-yl)prop-2-en-1-one]	++ (++ indicates binding activity from 50 to 80%)
C=CC(=O)N1C[C@H](C)N(c2nc(N3CC(N(C)C)C3)nc3c(F)c(-c4c(C)ccc5c(N)n[nH]c45)c(Cl)cc23)C[C@H]1C [Compound 22, 1-((2R,5S)-4-(7-(3-amino-6-methyl-1H-indazol-7-yl)-6-chloro-2-(3-(dimethylamino)azetidin-1-yl)-8-fluoroquinazolin-4-yl)-2,5-dimethylpiperazin-1-yl)prop-2-en-1-one]	+ (+ indicates binding activity greater than 0% and up to 50%)
C=CC(=O)N1C[C@H](C)N(c2nc(N3CC(N(C)C)C3)nc3c(F)c(-c4c(C)ccc5[nH]nc(Cl)c45)c(Cl)cc23)C[C@H]1C [Compound 23, 1-((2R,5S)-4-(6-chloro-7-(3-chloro-5-methyl-1H-indazol-4-yl)-2-(3-(dimethylamino)azetidin-1-yl)-8-fluoroquinazolin-4-yl)-2,5-dimethylpiperazin-1-yl)prop-2-en-1-one]	+++ (+++ indicates binding activity greater than 80%)
C=CC(=O)N1C[C@H](C)N(c2nc(N3CC(N(C)C)C3)nc3c(F)c(-c4ccc(F)c5[nH]ncc45)c(Cl)cc23)C[C@H]1C [Compound 29, 1-((2R,5S)-4-(6-chloro-2-(3-(dimethylamino)azetidin-1-yl)-8-fluoro-7-(7-fluoro-1H-indazol-4-yl)quinazolin-4-yl)-2,5-dimethylpiperazin-1-yl)prop-2-en-1-one]	+ (+ indicates binding activity greater than 0% and up to 50%)
C=CC(=O)N1C[C@H](C)N(c2nc(N3CC(N(C)C)C3)nc3c(F)c(-c4ccc(Cl)c5[nH]ncc45)c(Cl)cc23)C[C@H]1C [Compound 30, 1-((2R,5S)-4-(6-chloro-7-(7-chloro-1H-indazol-4-yl)-2-(3-(dimethylamino)azetidin-1-yl)-8-fluoroquinazolin-4-yl)-2,5-dimethylpiperazin-1-yl)prop-2-en-1-one]	+ (+ indicates binding activity greater than 0% and up to 50%)
C=CC(=O)N1C[C@H](C)N(c2nc(N3CC(N(C)C)C3)nc3c(F)c(-c4c(C)ccc5[nH]nc(NC6CCC6)c45)c(Cl)cc23)C[C@H]1C [Compound 36, 1-((2R,5S)-4-(6-chloro-7-(3-(cyclobutylamino)-5-methyl-1H-indazol-4-yl)-2-(3-(dimethylamino)azetidin-1-yl)-8-fluoroquinazolin-4-yl)-2,5-dimethylpiperazin-1-yl)prop-2-en-1-one]	+ (+ indicates binding activity greater than 0% and up to 50%)
C=CC(=O)N1C[C@H](C)N(c2nc(N3CC(N(C)C)C3)nc3c(F)c(-c4c(C)ccc5[nH]nc(NC(C)C)c45)c(Cl)cc23)C[C@H]1C [Compound 39, 1-((2R,5S)-4-(6-chloro-2-(3-(dimethylamino)azetidin-1-yl)-8-fluoro-7-(3-(isopropylamino)-5-methyl-1H-indazol-4-yl)quinazolin-4-yl)-2,5-dimethylpiperazin-1-yl)prop-2-en-1-one]	+ (+ indicates binding activity greater than 0% and up to 50%)
C=CC(=O)N1C[C@H](C)N(c2nc(N3CC(N(C)C)C3)nc3c(F)c(-c4c(C)ccc5[nH]nc(Br)c45)c(Cl)cc23)C[C@H]1C [Compound 40, 1-((2R,5S)-4-(7-(3-bromo-5-methyl-1H-indazol-4-yl)-6-chloro-2-(3-(dimethylamino)azetidin-1-yl)-8-fluoroquinazolin-4-yl)-2,5-dimethylpiperazin-1-yl)prop-2-en-1-one]	+++ (+++ indicates binding activity greater than 80%)
C=CC(=O)N1[C@H](C)CN(c2nc(N3CC(N(C)C)C3)nc3c(F)c(-c4c(C)ccc5[nH]nc(N)c45)c(Cl)cc23)C[C@@H]1C [Compound 41, 1-((2S,6R)-4-(7-(3-amino-5-methyl-1H-indazol-4-yl)-6-chloro-2-(3-(dimethylamino)azetidin-1-yl)-8-fluoroquinazolin-4-yl)-2,6-dimethylpiperazin-1-yl)prop-2-en-1-one]	+++ (+++ indicates binding activity greater than 80%)
C=CC(=O)N1C[C@H](C)N(c2nc(N3CC(N(C)C)C3)nc3c(F)c(-c4c(C)ccc5[nH]nc(N(C)C)c45)c(Cl)cc23)C[C@H]1C [Compound 42, 1-((2R,5S)-4-(6-chloro-7-(3-(dimethylamino)-5-methyl-1H-indazol-4-yl)-2-(3-(dimethylamino)azetidin-1-yl)-8-fluoroquinazolin-4-yl)-2,5-dimethylpiperazin-1-yl)prop-2-en-1-one]	+ (+ indicates binding activity greater than 0% and up to 50%)
C=CC(=O)N1CC2CCC(C1)N2c1nc(N2CC(N(C)C)C2)nc2c(F)c(-c3c(C)ccc4[nH]nc(N)c34)c(Cl)cc12 [Compound 43, 1-((1R,5S)-8-(7-(3-amino-5-methyl-1H-indazol-4-yl)-6-chloro-2-(3-(dimethylamino)azetidin-1-yl)-8-fluoroquinazolin-4-yl)-3,8-diazabicyclo[3.2.1]oc-tan-3-yl)prop-2-en-1-one]	+ (+ indicates binding activity greater than 0% and up to 50%)
C=CC(=O)N1C[C@H](C)N(c2nc(N3CC(N(C)C)C3)nc3c(F)c(-c4cccc5ncccc45)c(Cl)cc23)C[C@H]1C [Compound 44, 1-((2R,5S)-4-(6-chloro-2-(3-(dimethylamino)azetidin-1-yl)-8-fluoro-7-(quinolin-5-yl)quinazolin-4-yl)-2,5-dimethylpiperazin-1-yl)prop-2-en-1-one]	++ (++ indicates binding activity from 50 to 80%)
C=CC(=O)N1C[C@@H](C)N(c2nc(N3CC(N(C)C)C3)nc3c(F)c(-c4c(C)ccc5[nH]nc(N)c45)c(Cl)cc23)[C@@H](C)C1 [Compound 45, 1-((3R,5S)-4-(7-(3-amino-5-methyl-1H-indazol-4-yl)-6-chloro-2-(3-(dimethylamino)azetidin-1-yl)-8-fluoroquinazolin-4-yl)-3,5-dimethylpiperazin-1-yl)prop-2-en-1-one]	+++ (+++ indicates binding activity greater than 80%)
C=CC(=O)N1C[C@H](C)N(c2nc(N3CC(N(C)C)C3)nc3c(F)c(-c4c(C)ccc5[nH]nc(NCC)c45)c(Cl)cc23)C[C@H]1C [Compound 46, 1-((2R,5S)-4-(6-chloro-2-(3-(dimethylamino)azetidin-1-yl)-7-(3-(ethylamino)-5-methyl-1H-indazol-4-yl)-8-fluoroquinazolin-4-yl)-2,5-dimethylpiperazin-1-yl)prop-2-en-1-one]	++ (++ indicates binding activity from 50 to 80%)
C=CC(=O)N1C2CCC1CN(c1nc(N3CC(N(C)C)C3)nc3c(F)c(-c4c(C)ccc5[nH]nc(N)c45)c(Cl)cc13)C2 [Compound 47, 1-((1R,5S)-3-(7-(3-amino-5-methyl-1H-indazol-4-yl)-6-chloro-2-(3-(dimethylamino)azetidin-1-yl)-8-fluoroquinazolin-4-yl)-3,8-diazabicyclo[3.2.1]oc-tan-8-yl)prop-2-en-1-one]	++ (++ indicates binding activity from 50 to 80%)
C=CC(=O)N1CCN(c2nc(N3CC(N(C)C)C3)nc3c(F)c(-c4c(C)ccc5[nH]nc(N)c45)c(Cl)cc23)[C@@H](C)C1 [Compound 48, 1-((3S)-4-(7-(3-amino-5-methyl-1H-indazol-4-yl)-6-chloro-2-(3-(dimethylamino)azetidin-1-yl)-8-fluoroquinazolin-4-yl)-3-methylpiperazin-1-yl)prop-2-en-1-one]	+++ (+++ indicates binding activity greater than 80%)
C=CC(=O)N1C[C@H](C)N(c2nc(OCCN3CCCC3)nc3c(F)c(-c4c(C)ccc5[nH]nc(N)c45)c(Cl)cc23)C[C@H]1C [Compound 49, 1-((2R,5S)-4-(7-(3-amino-5-methyl-1H-indazol-4-yl)-6-chloro-8-fluoro-2-(2-(pyrrolidin-1-yl)ethoxy)quinazolin-4-yl)-2,5-dimethylpiperazin-1-yl)prop-2-en-1-one]	+++ (+++ indicates binding activity greater than 80%)
